{
  "source": "paper PMC9671096",
  "about": "(Molecular pharmaceutics, 2021)",
  "key": {"[1]": {"biological_target": "T1, HiBiT-ERα (Homo sapiens, UniProt P03372)", "T1 sequence (P03372 1-595)": "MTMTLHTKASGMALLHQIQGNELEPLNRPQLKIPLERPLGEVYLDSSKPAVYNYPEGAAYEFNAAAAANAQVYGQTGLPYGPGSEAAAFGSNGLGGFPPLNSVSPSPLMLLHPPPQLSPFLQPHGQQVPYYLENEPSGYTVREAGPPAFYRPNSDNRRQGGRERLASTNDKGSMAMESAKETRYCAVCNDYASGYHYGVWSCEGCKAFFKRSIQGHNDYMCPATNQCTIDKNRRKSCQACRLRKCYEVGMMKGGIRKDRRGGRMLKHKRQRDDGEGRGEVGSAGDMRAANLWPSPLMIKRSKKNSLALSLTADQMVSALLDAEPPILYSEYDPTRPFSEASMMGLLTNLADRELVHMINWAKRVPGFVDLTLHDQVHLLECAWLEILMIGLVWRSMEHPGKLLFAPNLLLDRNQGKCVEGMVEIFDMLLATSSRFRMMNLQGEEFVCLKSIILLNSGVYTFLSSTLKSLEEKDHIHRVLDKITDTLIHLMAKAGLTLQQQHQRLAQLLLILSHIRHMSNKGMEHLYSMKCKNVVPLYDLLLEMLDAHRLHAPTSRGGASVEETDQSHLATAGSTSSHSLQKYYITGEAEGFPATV", "type": "cell-based", "settings": "for effect on UI-EP001/UI-EP002-mediated degradation of HiBiT-ERα: with 100 μM UI-EP001 or UI-EP002, 1 hour, MG132 10 μM, chloroquine 100 μM, E2 or aldosterone 100 nM-100 μM"}, "[2]": {"biological_target": "HiBiT-GPER (Homo sapiens, UniProt Q99527)", "sequence (Q99527 whole entry)": "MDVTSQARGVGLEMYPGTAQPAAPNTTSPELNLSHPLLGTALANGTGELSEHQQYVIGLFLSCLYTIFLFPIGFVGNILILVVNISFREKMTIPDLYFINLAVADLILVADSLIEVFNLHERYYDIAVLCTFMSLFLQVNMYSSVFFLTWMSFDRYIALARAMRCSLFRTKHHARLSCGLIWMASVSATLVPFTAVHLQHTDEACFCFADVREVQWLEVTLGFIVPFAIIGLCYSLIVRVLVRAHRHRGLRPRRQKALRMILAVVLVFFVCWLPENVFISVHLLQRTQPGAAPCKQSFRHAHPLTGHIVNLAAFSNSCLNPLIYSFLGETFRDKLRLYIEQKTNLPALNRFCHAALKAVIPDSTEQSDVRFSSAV", "type": "cell-based", "settings": "for effect on UI-EP001/UI-EP002-mediated degradation of HiBiT-GPER: with 100 μM UI-EP001 or UI-EP002, 1 hour, MG132 10 μM, chloroquine 100 μM, E2 or aldosterone 100 nM-100 μM"}, "[3]": {"tested_on": "ERs", "type": "binding, human", "settings": "IC50 of 17β-E2 divided by IC50 of test compound; MCF-7 cytosol"}, "[4]": {"tested_on": "HCC-1806", "experiment": "Cell cycle analysis", "type": "cell-based, human", "settings": "HCC-1806, 10 μM, 24 hours"}, "[5]": {"biological_target": "ERβ (Homo sapiens, UniProt Q92731)", "sequence (Q92731 whole entry)": "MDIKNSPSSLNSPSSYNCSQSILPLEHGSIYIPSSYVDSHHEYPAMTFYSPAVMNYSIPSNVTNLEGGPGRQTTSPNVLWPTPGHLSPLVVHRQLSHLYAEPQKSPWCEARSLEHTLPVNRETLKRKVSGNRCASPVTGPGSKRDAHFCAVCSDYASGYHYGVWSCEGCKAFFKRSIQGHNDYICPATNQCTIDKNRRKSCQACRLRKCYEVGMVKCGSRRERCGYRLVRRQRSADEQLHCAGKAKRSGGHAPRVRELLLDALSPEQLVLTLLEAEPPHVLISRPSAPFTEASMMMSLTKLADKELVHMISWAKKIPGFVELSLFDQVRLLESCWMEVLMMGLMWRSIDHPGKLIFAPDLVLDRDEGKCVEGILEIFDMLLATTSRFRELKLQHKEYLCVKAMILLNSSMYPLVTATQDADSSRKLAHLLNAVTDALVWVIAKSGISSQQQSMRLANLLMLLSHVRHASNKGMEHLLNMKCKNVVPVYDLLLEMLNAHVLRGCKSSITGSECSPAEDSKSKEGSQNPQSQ", "experiment": "Immunostaining of endogenous ERβ in MCF-7 cells", "type": "cell-based", "settings": "1 hour"}, "[6]": {"biological_target": "T2, GPER (Homo sapiens, UniProt Q99527)", "T2 sequence (Q99527 whole entry)": "as the sequence (Q99527 whole entry) above", "experiment": "Immunostaining of endogenous GPER in MCF-7 cells", "type": "cell-based", "settings": "1 hour"}, "[7]": {"tested_on": "MCF-7", "experiment": "Cell cycle analysis", "type": "cell-based, human", "settings": "MCF-7, 10 μM, 24 hours"}, "[8]": {"biological_target": "T2, GPER", "experiment": "Intact cell competitive binding assay with E2-FITC tracer", "settings": "intact SKBR3 cells, concentrations as high as 10 μM"}, "[9]": {"tested_on": "SKBR3", "experiment": "Cell cycle analysis", "type": "cell-based, human", "settings": "SKBR3, 10 μM, 24 hours"}, "[10]": {"tested_on": "MDA-MB-231", "experiment": "Cell cycle analysis", "type": "cell-based, human", "settings": "MDA-MB-231, 10 μM, 24 hours"}, "[11]": {"biological_target": "T3, ERα (Homo sapiens, UniProt P03372)", "T3 sequence (P03372 1-595)": "T1 sequence (P03372 1-595)", "experiment": "Immunostaining of endogenous ERα in MCF-7 cells", "type": "cell-based", "settings": "1 hour"}},
  "note": "Where a SMILES comes first, the peptide text is derived from it. The star is where a group is joined. Cbz = O=C(OCc1ccccc1)*",
  "data": [
    {"smiles": "CC(C)C[C@@H](C=O)NC(=O)[C@H](CC(C)C)NC(=O)[C@H](CC(C)C)NC(=O)OCc1ccccc1", "note": "[MG132] (Cbz-Leu-Leu-Leu-aldehyde)", "values": [
      {"measurement": "effect on UI-EP001/UI-EP002-mediated degradation of HiBiT-ERα", "setting": "[1]", "result": "reversed"},
      {"measurement": "effect on UI-EP001/UI-EP002-mediated degradation of HiBiT-GPER", "setting": "[2]", "result": "reversed"}
    ]},
    {"smiles": "C[C@]12CCC(=O)C=C1CC[C@@H]1[C@@H]2[C@@H](O)C[C@]2(C=O)[C@@H](C(=O)CO)CC[C@@H]12", "note": "[aldosterone]", "values": [
      {"measurement": "effect on UI-EP001/UI-EP002-mediated degradation of HiBiT-ERα", "setting": "[1]", "result": "not aldosterone was capable of blocking"},
      {"measurement": "effect on UI-EP001/UI-EP002-mediated degradation of HiBiT-GPER", "setting": "[2]", "result": "not aldosterone was capable of blocking"}
    ]},
    {"smiles": "CCN(CC)CCCC(C)Nc1ccnc2cc(Cl)ccc12", "note": "(centres unmarked) [chloroquine, chloroquine diphosphate]", "values": [
      {"measurement": "effect on UI-EP001/UI-EP002-mediated degradation of HiBiT-GPER", "setting": "[2]", "result": "had no such effect"}
    ]},
    {"smiles": "C[C@]12CC[C@@H]3c4ccc(O)cc4CC[C@H]3[C@@H]1CC[C@@H]2O", "note": "[Estradiol, 17β-estradiol]", "values": [
      {"measurement": "ERs RBA%", "setting": "[3]", "result": 100.0, "unit": "%"}
    ]},
    {"smiles": "Cc1ncsc1-c1ccc(CNC(=O)C2CC(O)CN2C(=O)C(NC(=O)COCCOCCOCCOCC(=O)O)C(C)(C)C)cc1", "note": "(centres unmarked) [Partial PROTAC]", "values": [
      {"measurement": "cell cycle distribution shift (G2/M arrest)", "setting": "[4]", "result": "much less significant shift"},
      {"measurement": "reduction of nuclear ERβ", "setting": "[5]", "result": "did not impact"},
      {"measurement": "reduction of intracellular GPER", "setting": "[6]", "result": "did not impact"},
      {"measurement": "decrease of HiBiT-ERα", "setting": "[1]; 100 μM, 1 hour", "result": "did not show any significant decrease"},
      {"measurement": "cell cycle distribution shift (G2/M arrest)", "setting": "[7]", "result": "much less significant shift"},
      {"measurement": "competition for E2-FITC binding to GPER", "setting": "[8]", "result": "unable to compete"},
      {"measurement": "cell cycle distribution shift (G2/M arrest)", "setting": "[9]", "result": "much less significant shift"},
      {"measurement": "decrease of HiBiT-GPER", "setting": "[2]; 100 μM, 1 hour", "result": "did not show any significant decrease"},
      {"measurement": "receptor present following treatment", "setting": "[2]; 100 μM, 8 hrs, text does not say which receptor (HiBiT-GPER or HiBiT-ER)", "result": 83, "unit": "%"},
      {"measurement": "cell cycle distribution shift (G2/M arrest)", "setting": "[10]", "result": "much less significant shift"},
      {"measurement": "reduction of nuclear ERα", "setting": "[11]", "result": "did not impact"}
    ]}
  ]
}
